Laboratory results from patent publication US11466273B2, “Monocarboxylate transporter 4 (MCT4) antisense oligonucleotide (ASO) inhibitors for use as therapeutics in the treatment of cancer” (THE UNIVERSITY OF BRITISH COLUMBIA, priority 2015, dated 2022).
Where two headings read alike, the source gives them in different places.

What was measured:
PC3 cells = experiment: Combination screening, total live PC3 cell numbers; format: cell-based, human; details: approximate IC50 used for combination screening, 48 hours, read-out: IC50 Concentration
Description: Human PC-3 and DU145 CRPC cells, human LNCaP prostate cancer cells, and mouse TRAMPC2 prostate cancer cells were purchased from the American Type Culture Collection (ATCC); C4-2 CRPC cells were from the Vancouver Prostate Centre, Vancouver, BC, Canada. Human monolayer cultures were maintained in RPMI-1640 (GE Healthcare Hyclone™, Logan, Utah) supplemented with 10% fetal bovine serum (FBS) (GE Healthcare Hyclone™, Logan, Utah) while TRAMPC2 cells were maintained in DMEM (GE Healthcare Hyclone™, Logan, Utah) supplemented with 5% FBS. For cell counting, cells were trypsinized to form a single cell suspension and counted using a TC20 Automated Cell Counter (Bio-Rad, Hercules, Calif.). Cell viability was assessed by trypan blue exclusion.
Various combination strategies were screened at the approximate IC50 concentrations to determine whether synergistic effects may be found by combining current cancer therapeutics (see TABLE D) with MCT4 ASO SEQ ID NO:5. In FIGS. 10 A-C, the total live PC3 cell numbers were assessed 48 hours after treatment with Metformin, Doxycycline and docetaxel both alone and in combination with MCT4 ASO SEQ ID NO:5.

C4-2 CRPC cells = experiment: C4-2 CRPC cell proliferation after ASO transfection; format: cell-based, human; details: read-out: IC50 inhibition of C4-2 cell proliferation
Experimental: (§1) Cell viability was assessed by trypan blue exclusion.
(§2) Cells were transfected in 6-well plates with ASOs at 100 nM for 48 hours (unless otherwise indicated) using Oligofectamine™ (Invitrogen™, Carlsbad, Calif.) or with MCT4-targeting siRNAs and controls (Dharmacon™, Chicago, Ill.) at 50 nM for 48 hours using Lipofectamine™ 2000 (Invitrogen™), following the manufacturer's instructions.

PC-3 cells [1] = experiment: PC-3 cell proliferation after ASO/siRNA transfection; format: cell-based, human; details: for inhibition of PC-3 cell proliferation, screening of ten MCT4 ASOs: 100 nM, 48 hours; for inhibition of cell proliferation, time course: 96 hours post-transfection; for IC50: transfection of 5 nM to 200 nM, read-out: IC50 inhibition of PC-3 cell proliferation
Experimental: as §1, §2

mouse MCT4 = experiment: Mouse MCT4 expression in TRAMPC2 cells after ASO transfection; format: cell-based; details: up to 200 nM
Experimental: as §2
(§3) Total RNA was isolated using the RNeasy Mini Kit™ (Qiagen Inc.™, Hilden, Germany) and cDNA synthesized using the QuantiTect Reverse Transcription Kit™ (Qiagen™). Primers were designed using Primer-BLAST™. qRT-PCR reactions using KAPA SYBR Fast Universal™ (Kapa Biosystems™, Woburn, Mass.) were performed in triplicate in a ViiA 7 Real-Time PCR™ system (Applied Biosystems™, Foster City, Calif.). […]
(§4) Cells were harvested and lysed in RIPA buffer (50 mM Tris-Cl pH 7.4, 150 mM NaCl, 1% Igepal, 0.5% Na-deoxycholate, 0.1% SDS) supplemented with a complete protease inhibitor cocktail (Roche, Nutley, N.J.). The protein concentration of the lysate was determined by Pierce BCA Protein Assay™ (Thermo Scientific™, Waltham, Mass.). […] Following overnight incubation at 4° C., the primary antibody was probed with the corresponding secondary antibody and detected using the Odyssey Infrared Imaging System™ (Li-cor Biosciences™) and Image Studio Version 3.1™ (Li-cor Biosciences™). […]

MCT4 [2] = experiment: MCT4 expression in DU145 cells after ASO transfection; format: cell-based, human; details: compared with PC-3 and C4-2
Experimental: as §2, §3, §4

MCT4 [3] = experiment: MCT4 expression in C4-2 cells after ASO transfection; format: cell-based, human; details: read-out: IC50 reduction of MCT4 expression
Experimental: as §2, §3, §4

[4] = test system: DU145 prostate cancer cells; experiment: DU145 cell proliferation after ASO transfection; format: cell-based, human; details: compared with PC-3 and C4-2
Experimental: as §1, §2

[5] = test system: TRAMPC2 prostate cancer cells; experiment: TRAMPC2 cell proliferation after ASO transfection; format: cell-based, mouse; details: up to highest tested concentration of 200 nM
Experimental: as §1, §2

[6] = test system: subcutaneous PC-3 tumours; experiment: Treatment of PC-3 tumour-bearing nude mice with MCT4 ASO; format: in vivo; details: for host toxicity (animal weights and behaviour) / growth of PC-3 tumours: 10 mg/kg intraperitoneal; for host toxicity (animal weights and behaviour): 15 days; for growth of PC-3 tumours: daily for 5 days, 2 days off, total 15 days; for MCT4 protein expression in tumour / cell apoptosis, cleaved-caspase 3 staining / cell proliferation, Ki-67 staining: tumour tissue IHC
Experimental: PC-3 cells ([…] cells in 1:1 HBSS:Matrigel) were injected subcutaneously into both flanks of 24 male athymic nude mice (Simonsen Laboratories™, Gilroy, Calif.). Once the mean tumour volume had reached approximately 100 mm3, mice were randomized into four groups and treated with intraperitoneal injections of MCT4 ASO #1 (SEQ ID NO: 1), #14 (SEQ ID NO: 5), control ASO, or vehicle (PBS) at 10 mg/kg daily for 5 days followed by 2 days off treatment for a total of 15 days. The health of the mice was monitored throughout the study by measuring body weights and checking for abnormal behaviour such as lethargy, lack of hydration, and additional signs of weakness. Tumour size was measured twice weekly and tumour volume calculated using the formula: Volume=Length×width×depth×0.5236 (mm3). Mice were sacrificed 1 hour after the final dose for tissue harvesting.
Tumour tissue was formalin-fixed and paraffin-embedded for immunohistochemical analysis. Tissues were sectioned, probed, and stained with DAB (Sigma™) as previously described (Wang et al., 2005). […] For MCT4, images of five random fields at 200× magnification were taken per tumour and staining intensity was assessed by percentage scoring, using the formula: Intensity=(% area score 3)×3+(% area score 2)×2+(% area score 1)×1. The extent of immune cell aggregation was quantified following CD31 staining by imaging the five most prominent regions of aggregates per tumour at 200× magnification and determining the percent area of the field they occupied. The proportions of immune cells were evaluated as the area of positive staining normalized to the area occupied by immune cell aggregates in the same five prominent regions.

PC-3 cells [7] = experiment: Lactate and glucose determination in PC-3 cells; format: cell-based, human; details: after 48 hours of transfection
Experimental: PC-3 cells transfected with ASOs for 48 hours were assessed for lactate and glucose levels. Cells were incubated with fresh media for 4 hours. A sample of the media was then taken and deproteinated with 10K Spin Columns™ (BioVision™, Milpitas, Calif.) prior to determination of lactate concentration using Lactate Assay Kit (BioVision) and glucose concentration using Glucose Assay Kit™ (BioVision™). Intracellular lactate levels were determined by lysing ASO-transfected cells in MQH2O. Final concentrations were determined by normalizing to the total number of live cells.

MCT4 mRNA = experiment: MCT4 expression (mRNA, protein) in PC-3 cells after ASO transfection; format: cell-based, human; details: for MCT4 protein levels, time course: 96 hours; for inhibition of MCT4 expression, screening of ten MCT4 ASOs: qPCR and Western blot, 48 hours; for IC50: transfection of 5 nM to 200 nM, read-out: IC50 reduction of MCT4 mRNA levels
Experimental: as §2
(§5) Total RNA was isolated using the RNeasy Mini Kit™ (Qiagen Inc.™, Hilden, Germany) and cDNA synthesized using the QuantiTect Reverse Transcription Kit™ (Qiagen™). Primers were designed using Primer-BLAST™. qRT-PCR reactions using KAPA SYBR Fast Universal™ (Kapa Biosystems™, Woburn, Mass.) were performed in triplicate in a ViiA 7 Real-Time PCR™ system (Applied Biosystems™, Foster City, Calif.). Target genes were normalized to a geometric average of 3 internal reference genes (Vandesompele et al., 2002).
Cells were harvested and lysed in RIPA buffer (50 mM Tris-Cl pH 7.4, 150 mM NaCl, 1% Igepal, 0.5% Na-deoxycholate, 0.1% SDS) supplemented with a complete protease inhibitor cocktail (Roche, Nutley, N.J.). The protein concentration of the lysate was determined by Pierce BCA Protein Assay™ (Thermo Scientific™, Waltham, Mass.). The lysate was run on 8% SDS polyacrylamide gel (20 ug of protein per lane) and proteins were transferred onto PVDF membrane (Millipore™, Billerica, Mass.). The blot was blocked with the Odyssey™ blocking buffer (Li-cor Biosciences™) and probed with anti-MCT4 antibody. Vinculin was used as a loading control. Following overnight incubation at 4° C., the primary antibody was probed with the corresponding secondary antibody and detected using the Odyssey Infrared Imaging System™ (Li-cor Biosciences™) and Image Studio Version 3.1™ (Li-cor Biosciences™). Densitometry analysis was done using ImageJ (U.S. National Institutes of Health, Bethesda, Md.).

PC-3 cells [8] = experiment: qPCR of glycolysis and lactic acid conversion genes in PC-3 cells; format: cell-based, human
Experimental: as §5

| Compound | IC50 (PC3 cells; Homo sapiens, PC-3) [µM] | IC50 (C4-2 CRPC cells) [µM] | inhibition of PC-3 cell proliferation, screening of ten MCT4 ASOs (PC-3 cells [1]) | inhibition of cell proliferation, time course (PC-3 cells [1]) | IC50 (PC-3 cells [1]) [µM] | reduction in mouse MCT4 expression (mouse MCT4) | inhibitory effect on MCT4 expression in DU145 cells (MCT4 [2]) | IC50 (MCT4 [3]) [µM] | inhibitory effect on DU145 cell proliferation [4] | reduction in TRAMPC2 cell proliferation [5] | host toxicity (animal weights and behaviour) [6] | growth of PC-3 tumours [6] | MCT4 protein expression in tumour [6] | cell apoptosis, cleaved-caspase 3 staining [6] | cell proliferation, Ki-67 staining [6] | glucose consumption (PC-3 cells [7]) | intracellular lactate (PC-3 cells [7]) | lactic acid secretion (PC-3 cells [7]) | MCT4 protein levels, time course (MCT4 mRNA) | inhibition of MCT4 expression, screening of ten MCT4 ASOs (MCT4 mRNA) | also measured |
| --- | --- | --- | --- | --- | --- | --- | --- | --- | --- | --- | --- | --- | --- | --- | --- | --- | --- | --- | --- | --- | --- |
| CC(=O)O[C@@]12CO[C@@H]1C[C@H](O)[C@@]1(C)C(=O)[C@H](O)C3=C(C)[C@@H](OC(=O)[C@H](O)[C@@H](NC(=O)OC(C)(C)C)c4ccccc4)C[C@@](O)([C@@H](OC(=O)c4ccccc4)[C@H]21)C3(C)C [Docetaxel] | 0.0025 |  |  |  |  |  |  |  |  |  |  |  |  |  |  |  |  |  |  |  |  |
| C[C@H]1c2cccc(O)c2C(=O)C2=C(O)[C@]3(O)C(=O)C(C(N)=O)=C(O)[C@@H](N(C)C)[C@@H]3[C@@H](O)[C@@H]21 [Doxycycline] | 15 |  |  |  |  |  |  |  |  |  |  |  |  |  |  |  |  |  |  |  |  |
| CN(C)C(=N)N=C(N)N [Metformin] | 4000 |  |  |  |  |  |  |  |  |  |  |  |  |  |  |  |  |  |  |  |  |
| AGATGCAGAAGACCACGAGG (chemistry not given here; listed as Homo sapiens) [SEQ ID No. 5] |  | 0.027 | greatest potency | maintained the inhibition of cell proliferation | 0.026 | did not lead to a significant reduction | almost identical IC50 values | 0.026 | almost identical IC50 values | did not lead to a significant reduction | without inducing major host toxicity | markedly inhibited | decrease in MCT4 protein expression | increase in cell apoptosis | decrease in cell proliferation | extensive decrease | accumulation | marked inhibition | remained low | greatest potency | IC50 (PC3 cells): 0.05 µM; IC50 (MCT4 mRNA): 0.032 µM; expression of glycolysis genes GAPDH, PGK1, PGAM1 and ENO1 (PC-3 cells [8]): down regulation; expression of lactate dehydrogenase A (LDHA) (PC-3 cells [8]): depressed; expression of pyruvate dehydrogenase kinase-1 (PDK1) (PC-3 cells [8]): decreased expression |
| TCCCATGGCCAGGAGGGTTG (chemistry not given here; listed as Homo sapiens) [SEQ ID No. 1] |  | 0.04 | greatest potency | maintained the inhibition of cell proliferation | 0.05 | did not lead to a significant reduction | almost identical IC50 values | 0.05 | almost identical IC50 values | did not lead to a significant reduction | without inducing major host toxicity | markedly inhibited | decrease in MCT4 protein expression | increase in cell apoptosis | decrease in cell proliferation | extensive decrease | accumulation | marked inhibition | remained low | greatest potency | IC50 (MCT4 mRNA): 0.05 µM; expression of glycolysis genes GAPDH, PGK1, PGAM1 and ENO1 (PC-3 cells [8]): down regulation; expression of lactate dehydrogenase A (LDHA) (PC-3 cells [8]): depressed; expression of pyruvate dehydrogenase kinase-1 (PDK1) (PC-3 cells [8]): decreased expression |
